From patent US10202361B2, “Pyridazinones as herbicides” (E I DU PONT DE NEMOURS AND COMPANY, priority 2014, dated 2019)

Experiments:
Assay type in all cases: in vivo
[1] = test system: wheat, spring (spring wheat, Triticum aestivum); assay: Test D pre-/postemergence controlled growth environment herbicide test; settings: scale 0 to 100
Description: (§1) Seeds of plant species selected from bluegrass (annual bluegrass, Poa annua), blackgrass (Alopecurus myosuroides), canarygrass (Phalaris minor), chickweed (common chickweed, Stellaria media), galium (catchweed bedstraw, Galium aparine), downy bromegrass (Bromus tectorum), field poppy (Papaver rhoeas), field violet (Viola arvensis), foxtail, green (green foxtail, Setaria viridis), deadnettle (henbit deadnettle, Lamium amplexicaule), ryegrass, Italian (Italian ryegrass, Lolium multiflorum), kochia (Kochia scoparia), lambsquarters (Chenopodium album), oilseed rape (Brassica napus), pigweed (Amaranthus retroflexus), chamomile (scentless chamomile, Matricaria inodora), Russian thistle (Salsola kali), speedwell (bird's-eye speedwell, Veronica persica), barley, spring (spring barley, Hordeum vulgare), wheat, spring (spring wheat, Triticum aestivum), buckwheat, wild (wild buckwheat, Polygonum convolvulus), mustard, wild (wild mustard, Sinapis arvensis), oat, wild (wild oat, Avena fatua), radish, wild (wild radish, Raphanus raphanistrum), windgrass (Apera spica-venti), barley, winter (winter barley, Hordeum vulgare), and wheat, winter (winter wheat, Triticum aestivum) were planted into a silt loam soil and treated preemergence with test chemicals formulated in a non-phytotoxic solvent mixture which included a surfactant.
(§2) At the same time, these species were planted in pots containing Redi-Earth® planting medium (Scotts Company, 14111 Scottslawn Road, Marysville, Ohio 43041) comprising spaghnum peat moss, vermiculite, wetting agent and starter nutrients and treated with postemergence applications of the test chemicals formulated in the same manner. Plants ranged in height from 2 to 18 cm (1- to 4-leaf stage). Treated plants and controls were maintained in a controlled growth environment for 14 to 21 d after which time all species were compared to controls and visually evaluated. Plant response ratings, summarized in Table D, are based on a scale of 0 to 100 where 0 is no effect and 100 is complete control. A dash (-) response means no test result.

[2] = test system: lambsquarters (Chenopodium album); assay: as above; settings: scale 0 to 100
Description: as §1, §2

[3] = test system: sandbur (southern sandbur, Cenchrus echinatus); assay: Test E pre-/postemergence greenhouse herbicide test; settings: scale 0 to 100
Outline: (§3)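 Visual control ratings on a 0 to 100 scale (100 = complete control) were made 14 to 21 d after treatment, relative to untreated controls. Test chemicals, formulated with surfactant in a non-phytotoxic solvent, were applied to seeded silt loam soil (preemergence) and to 2 to 18 cm plants (postemergence).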

[4] = test system: crabgrass, Brazil (Brazilian crabgrass, Digitaria horizontalis); assay: as above; settings: scale 0 to 100
Outline: as §3

[5] = test system: foxtail, giant (giant foxtail, Setaria faberii); assay: as above; settings: Preemergence, scale 0 to 100
Outline: as §3

[6] = test system: waterhemp (common waterhemp, Amaranthus rudis); assay: as above; settings: scale 0 to 100
Outline: as §3

[7] = test system: field bindweed (Convolvulus arvensis); assay: as above; settings: scale 0 to 100
Outline: as §3

[8] = test system: arrowleaf sida (Sida rhombifolia); assay: as above; settings: scale 0 to 100
Outline: as §3

[9] = test system: dayflower, VA (Virginia dayflower, Commelina virginica); assay: as above; settings: scale 0 to 100
Outline: as §3

COc1cc(=O)n(-c2ccc(F)cc2)nc1Cc1ccnc(C(F)(F)F)c1 [Compound 17, 2-(4-fluorophenyl)-5-methoxy-6-[[2-(trifluoromethyl)-4-pyridinyl]methyl]-3 (2H)-pyridazinone]
Plant response rating ([1]; Postemergence, 31 g ai/ha): 10
Plant response rating ([1]; Postemergence, 62 g ai/ha): 15
Plant response rating ([1]; Postemergence, 125 g ai/ha): 20
Plant response rating ([1]; Postemergence, 250 g ai/ha): 20
Plant response rating ([1]; Postemergence, 500 g ai/ha): 30
Plant response rating ([1]; Preemergence, 31 g ai/ha): 0
Plant response rating ([1]; Preemergence, 62 g ai/ha): 15
Plant response rating ([1]; Preemergence, 125 g ai/ha): 30
Plant response rating ([1]; Preemergence, 250 g ai/ha): 70
Plant response rating ([1]; Preemergence, 500 g ai/ha): 90
Plant response rating ([2]; Postemergence, 31 g ai/ha): 10
Plant response rating ([2]; Postemergence, 62 g ai/ha): 50
Plant response rating ([2]; Postemergence, 125 g ai/ha): 80
Plant response rating ([2]; Postemergence, 250 g ai/ha): 95
Plant response rating ([2]; Postemergence, 500 g ai/ha): 100
Plant response rating ([2]; Preemergence, 31 g ai/ha): 90
Plant response rating ([2]; Preemergence, 62 g ai/ha): 95
Plant response rating ([2]; Preemergence, 250 g ai/ha): 90
Plant response rating ([2]; Preemergence, 500 g ai/ha): 90
Plant response rating: Sandbur ([3]; Postemergence, 16 g ai/ha): 10
Plant response rating: Sandbur ([3]; Postemergence, 31 g ai/ha): 20
Plant response rating: Sandbur ([3]; Postemergence, 62 g ai/ha): 20
Plant response rating: Sandbur ([3]; Postemergence, 125 g ai/ha): 35
Plant response rating: Sandbur ([3]; Postemergence, 250 g ai/ha): 75
Plant response rating: Sandbur ([3]; Preemergence, 16 g ai/ha): 0
Plant response rating: Sandbur ([3]; Preemergence, 31 g ai/ha): 5
Plant response rating: Sandbur ([3]; Preemergence, 62 g ai/ha): 40
Plant response rating: Sandbur ([3]; Preemergence, 125 g ai/ha): 70
Plant response rating: Sandbur ([3]; Preemergence, 250 g ai/ha): 98
Plant response rating: Crabgrass, Brazil ([4]; Postemergence, 16 g ai/ha): 20
Plant response rating: Crabgrass, Brazil ([4]; Postemergence, 31 g ai/ha): 20
Plant response rating: Crabgrass, Brazil ([4]; Postemergence, 62 g ai/ha): 20
Plant response rating: Crabgrass, Brazil ([4]; Postemergence, 125 g ai/ha): 30
Plant response rating: Crabgrass, Brazil ([4]; Postemergence, 250 g ai/ha): 70
Plant response rating: Crabgrass, Brazil ([4]; Preemergence, 16 g ai/ha): 100
Plant response rating: Crabgrass, Brazil ([4]; Preemergence, 31 g ai/ha): 100
Plant response rating: Crabgrass, Brazil ([4]; Preemergence, 62 g ai/ha): 100
Plant response rating: Crabgrass, Brazil ([4]; Preemergence, 125 g ai/ha): 100
Plant response rating: Crabgrass, Brazil ([4]; Preemergence, 250 g ai/ha): 100
Plant response rating: Foxtail, Giant ([5]; 16 g ai/ha): 0
Plant response rating: Foxtail, Giant ([5]; 31 g ai/ha): 40
Plant response rating: Foxtail, Giant ([5]; 62 g ai/ha): 65
Plant response rating: Foxtail, Giant ([5]; 125 g ai/ha): 100
Plant response rating: Foxtail, Giant ([5]; 250 g ai/ha): 100
Plant response rating: Waterhemp ([6]; Postemergence, 16 g ai/ha): 40
Plant response rating: Waterhemp ([6]; Postemergence, 31 g ai/ha): 50
Plant response rating: Waterhemp ([6]; Postemergence, 62 g ai/ha): 80
Plant response rating: Waterhemp ([6]; Postemergence, 125 g ai/ha): 85
Plant response rating: Waterhemp ([6]; Postemergence, 250 g ai/ha): 95
Plant response rating: Waterhemp ([6]; Preemergence, 16 g ai/ha): 75
Plant response rating: Waterhemp ([6]; Preemergence, 31 g ai/ha): 98
Plant response rating: Waterhemp ([6]; Preemergence, 62 g ai/ha): 98
Plant response rating: Waterhemp ([6]; Preemergence, 125 g ai/ha): 98
Plant response rating: Waterhemp ([6]; Preemergence, 250 g ai/ha): 98
Plant response rating: Field Bindweed ([7]; Postemergence, 16 g ai/ha): 40
Plant response rating: Field Bindweed ([7]; Postemergence, 31 g ai/ha): 40
Plant response rating: Field Bindweed ([7]; Postemergence, 62 g ai/ha): 50
Plant response rating: Field Bindweed ([7]; Postemergence, 125 g ai/ha): 60
Plant response rating: Field Bindweed ([7]; Postemergence, 250 g ai/ha): 75
Plant response rating: Field Bindweed ([7]; Preemergence, 16 g ai/ha): 0
Plant response rating: Field Bindweed ([7]; Preemergence, 31 g ai/ha): 0
Plant response rating: Field Bindweed ([7]; Preemergence, 62 g ai/ha): 0
Plant response rating: Field Bindweed ([7]; Preemergence, 125 g ai/ha): 5
Plant response rating: Field Bindweed ([7]; Preemergence, 250 g ai/ha): 98
Plant response rating: Arrowleaf Sida ([8]; Postemergence, 16 g ai/ha): 30
Plant response rating: Arrowleaf Sida ([8]; Postemergence, 31 g ai/ha): 40
Plant response rating: Arrowleaf Sida ([8]; Postemergence, 62 g ai/ha): 50
Plant response rating: Arrowleaf Sida ([8]; Postemergence, 125 g ai/ha): 50
Plant response rating: Arrowleaf Sida ([8]; Postemergence, 250 g ai/ha): 70
Plant response rating: Arrowleaf Sida ([8]; Preemergence, 16 g ai/ha): 0
Plant response rating: Arrowleaf Sida ([8]; Preemergence, 31 g ai/ha): 0
Plant response rating: Arrowleaf Sida ([8]; Preemergence, 62 g ai/ha): 0
Plant response rating: Arrowleaf Sida ([8]; Preemergence, 125 g ai/ha): 0
Plant response rating: Arrowleaf Sida ([8]; Preemergence, 250 g ai/ha): 0
Plant response rating: Dayflower, VA ([9]; Postemergence, 16 g ai/ha): 10
Plant response rating: Dayflower, VA ([9]; Postemergence, 31 g ai/ha): 10
Plant response rating: Dayflower, VA ([9]; Postemergence, 62 g ai/ha): 15
Plant response rating: Dayflower, VA ([9]; Postemergence, 125 g ai/ha): 30
Plant response rating: Dayflower, VA ([9]; Postemergence, 250 g ai/ha): 40
Plant response rating: Dayflower, VA ([9]; Preemergence, 16 g ai/ha): 0
Plant response rating: Dayflower, VA ([9]; Preemergence, 31 g ai/ha): 10
Plant response rating: Dayflower, VA ([9]; Preemergence, 62 g ai/ha): 20
Plant response rating: Dayflower, VA ([9]; Preemergence, 250 g ai/ha): 80
